Assay results reported in patent publication US12630600B2 (MEDIMMUNE LIMITED, priority 2022, dated 2026).
Starred links: 1 amine or outer side, 2 acyl side, 3 side chain; linkers in the order of their positions; H or OH if unused. Non-standard residues stand in square brackets, D forms with d. Residues, ends and D or L forms follow the SMILES beside them. Groups on a side chain read outwards from the residue. *: point of attachment. C20 diacid = O=C(O)CCCCCCCCCCCCCCCCCCC(=O)*; C18 diacid = O=C(O)CCCCCCCCCCCCCCCCC(=O)*; γGlu = O=C(O)[C@H](CCC(=O)[*:2])N[*:1]; αMeF = C[C@](N)(Cc1ccccc1)C(=O)O; AEEA = NCCOCCOCC(=O)O; Aib = CC(C)(N)C(=O)O

Biological target: T1, human GLP-1 receptor (hGLP-1R) (Homo sapiens, UniProt P43220)
T1 construct: expressed in transfected cells; host or cells: CHO
Assay: cAMP production (HTRF) in CHO cells expressing human GLP-1 receptor
Assay type: cell-based
Conditions: % GLP-1R activity relative to GLP-1 / % GlucR activity relative to glucagon
Procedure: Cells were re-suspended in assay buffer at a batch-dependent optimized concentration (typically hGLP-1R cells at 1×10^5 cells/mL, hGCGR cells at 2×10^5 cells/mL).
Cells were added to the assay plate using a multidrop dispenser and incubated at room temperature for 30 minutes before measuring the cAMP level using a cAMP dynamic 2 homogeneous time resolved Fluorescence (HTRF) kit (Cisbio Bioassays #62AM4PEJ) following the two-step protocol as per manufacturer's recommendations. In brief, anti-cAMP cryptate (donor fluorophore) and cAMP-d2 (acceptor fluorophore) were made up separately by diluting each 1 in 20 in conjugate and lysis buffer provided in the kit. Anti-cAMP cryptate was added to all wells of the assay plate, followed by cAMP-d2 added to all wells except non-specific binding (NSB) wells (to which conjugate and lysis buffer was added).
Data was transformed to % Delta F as described in the manufacturer's guidelines and analyzed by 4-parameter logistic fit to determine EC50 values.

T1 sequence (P43220 24-463): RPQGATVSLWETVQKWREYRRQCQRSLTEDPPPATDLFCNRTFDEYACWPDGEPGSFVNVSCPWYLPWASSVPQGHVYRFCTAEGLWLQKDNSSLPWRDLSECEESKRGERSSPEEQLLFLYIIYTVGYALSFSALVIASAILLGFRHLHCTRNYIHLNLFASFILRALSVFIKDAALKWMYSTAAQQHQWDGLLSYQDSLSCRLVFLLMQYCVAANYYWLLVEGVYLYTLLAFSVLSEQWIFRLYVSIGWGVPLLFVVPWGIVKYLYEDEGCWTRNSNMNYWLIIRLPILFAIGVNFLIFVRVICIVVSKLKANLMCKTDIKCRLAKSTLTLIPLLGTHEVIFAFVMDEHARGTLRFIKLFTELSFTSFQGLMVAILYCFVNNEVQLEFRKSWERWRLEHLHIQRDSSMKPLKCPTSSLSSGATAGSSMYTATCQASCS

## CC[C@H](C)[C@H](NC(=O)[C@H](Cc1c[nH]c2ccccc12)NC(=O)[C@H](CCCCNC(=O)COCCOCCNC(=O)COCCOCCNC(=O)CC[C@H](NC(=O)CCCCCCCCCCCCCCCCC(=O)O)C(=O)O)NC(=O)[C@@H](NC(=O)[C@H](Cc1ccccc1)NC(=O)[C@H](CC(=O)O)NC(=O)[C@H](CCC(N)=O)NC(=O)[C@H](C)NC(=O)C(C)(C)NC(=O)[C@H](CCCNC(=N)N)NC(=O)[C@H](CO)NC(=O)[C@H](CC(=O)O)NC(=O)[C@H](CC(C)C)NC(=O)[C@](C)(Cc1ccccc1)NC(=O)[C@H](CCCCN)NC(=O)[C@H](CO)NC(=O)[C@@H](NC(=O)[C@H](CC(=O)O)NC(=O)[C@H](CO)NC(=O)[C@@H](NC(=O)[C@](C)(Cc1ccccc1)NC(=O)[C@H](CO)NC(=O)CNC(=O)[C@H](Cc1c[nH]cn1)NC(=O)C(C)(C)NC(=O)[C@@H](N)Cc1c[nH]cn1)[C@@H](C)O)C(C)C)C(C)C)C(=O)N[C@@H](C)C(=O)N[C@@H](CC(N)=O)C(=O)N[C@H](C(N)=O)[C@@H](C)O [Peptide 365, H(Aib)HGS(αMePhe)TSDVSK(αMePhe)LDSR(Aib)AQDFVK(O2Oc-O2Oc-γE-C18diacid)24WIANT-amide] (H-H[Aib]HGS[αMeF]TSDVSK[αMeF]LDSR[Aib]AQDFVK([AEEA-AEEA-γGlu-C18 diacid])WIANT-NH2; N-terminus assumed)
Table 8
  % Relative Potency Ratio: 0.3

## CC[C@H](C)[C@H](NC(=O)[C@H](Cc1c[nH]c2ccccc12)NC(=O)[C@H](CCCCNC(=O)COCCOCCNC(=O)COCCOCCNC(=O)CC[C@H](NC(=O)CC[C@H](NC(=O)CCCCCCCCCCCCCCCCC(=O)O)C(=O)O)C(=O)O)NC(=O)[C@@H](NC(=O)[C@H](Cc1ccccc1)NC(=O)[C@H](CC(=O)O)NC(=O)[C@H](CCC(N)=O)NC(=O)[C@H](C)NC(=O)[C@H](C)NC(=O)[C@H](CCCNC(=N)N)NC(=O)[C@H](CO)NC(=O)[C@H](CC(=O)O)NC(=O)[C@H](CC(C)C)NC(=O)[C@](C)(Cc1ccccc1)NC(=O)[C@H](CCCCN)NC(=O)[C@H](CO)NC(=O)[C@@H](NC(=O)[C@H](CC(=O)O)NC(=O)[C@H](CO)NC(=O)[C@@H](NC(=O)[C@](C)(Cc1ccccc1)NC(=O)[C@H](CO)NC(=O)CNC(=O)[C@H](Cc1c[nH]cn1)NC(=O)C(C)(C)NC(=O)[C@@H](N)Cc1c[nH]cn1)[C@@H](C)O)C(C)C)C(C)C)C(=O)N[C@@H](C)C(=O)N[C@@H](CC(N)=O)C(=O)N[C@H](C(=O)NCC(N)=O)[C@@H](C)O [Peptide 363] (H-H[Aib]HGS[αMeF]TSDVSK[αMeF]LDSRAAQDFVK([AEEA-AEEA-γGlu-γGlu-C18 diacid])WIANTG-NH2; N-terminus assumed)
Table 8
  % Relative Potency Ratio: 5.1

## H(Aib)HGS(αMePhe)TSDK(O2OC-O2OC-γE-γE-C20diacid)10SK(αMePhe)LDSRAAQD(αMePhe)VQ(Aib)IANT-amide [Peptide 391]
Table 9
  % Relative Potency Ratio: 49.1

## CC(C)C[C@H](NC(=O)[C@H](Cc1c[nH]c2ccccc12)NC(=O)[C@H](CCC(N)=O)NC(=O)[C@@H](NC(=O)[C@H](Cc1ccccc1)NC(=O)[C@H](CC(=O)O)NC(=O)[C@H](CCCNC(=N)N)NC(=O)[C@H](C)NC(=O)[C@H](CCCNC(=N)N)NC(=O)[C@H](CCCCNC(=O)COCCOCCNC(=O)COCCOCCNC(=O)CC[C@H](NC(=O)CCCCCCCCCCCCCCCCC(=O)O)C(=O)O)NC(=O)[C@@H](NC(=O)[C@H](CCC(=O)O)NC(=O)[C@H](CC(C)C)NC(=O)[C@](C)(Cc1ccccc1)NC(=O)[C@H](CCCCN)NC(=O)[C@H](CO)NC(=O)[C@@H](NC(=O)[C@H](CC(=O)O)NC(=O)[C@H](CO)NC(=O)[C@@H](NC(=O)[C@H](Cc1ccccc1)NC(=O)[C@@H](NC(=O)CNC(=O)[C@H](CCC(N)=O)NC(=O)C(C)(C)NC(=O)[C@@H](N)Cc1c[nH]cn1)[C@@H](C)O)[C@@H](C)O)C(C)C)[C@@H](C)O)C(C)C)C(=O)N[C@@H](CC(C)C)C(=O)N[C@@H](CCC(=O)O)C(=O)NC(C)(C)C(=O)NCC(=O)O [Peptide 445] (H-H[Aib]QGTFTSDVSK[αMeF]LETK([AEEA-AEEA-γGlu-C18 diacid])RARDFVQWLLE[Aib]G-OH; N-terminus assumed)
Table 6
  % Relative Potency Ratio: 41.0

## CC[C@H](C)[C@H](NC(=O)[C@H](Cc1c[nH]c2ccccc12)NC(=O)[C@H](CCCCNC(=O)COCCOCCNC(=O)COCCOCCNC(=O)CC[C@H](NC(=O)CCCCCCCCCCCCCCCCC(=O)O)C(=O)O)NC(=O)[C@@H](NC(=O)[C@H](Cc1ccccc1)NC(=O)[C@H](CC(=O)O)NC(=O)[C@H](CCC(N)=O)NC(=O)[C@H](C)NC(=O)[C@H](C)NC(=O)[C@H](CCC(N)=O)NC(=O)[C@H](CO)NC(=O)[C@H](CC(=O)O)NC(=O)[C@H](CC(C)C)NC(=O)[C@](C)(Cc1ccccc1)NC(=O)[C@H](CCCCN)NC(=O)[C@H](CO)NC(=O)[C@@H](NC(=O)[C@H](CC(=O)O)NC(=O)[C@H](CO)NC(=O)[C@@H](NC(=O)[C@](C)(Cc1ccccc1)NC(=O)[C@H](CO)NC(=O)CNC(=O)[C@@H](NC(=O)C(C)(C)NC(=O)[C@@H](N)Cc1c[nH]cn1)[C@@H](C)CC)[C@@H](C)O)C(C)C)C(C)C)C(=O)N[C@@H](C)C(=O)N[C@@H](CC(N)=O)C(=O)N[C@H](C(N)=O)[C@@H](C)O [Peptide 358] (H-H[Aib]IGS[αMeF]TSDVSK[αMeF]LDSQAAQDFVK([AEEA-AEEA-γGlu-C18 diacid])WIANT-NH2; N-terminus assumed)
Table 8
  % Relative Potency Ratio: 424.1

## CC[C@H](C)[C@H](NC(=O)C(C)(C)NC(=O)[C@H](CCCCNC(=O)COCCOCCNC(=O)COCCOCCNC(=O)CC[C@H](NC(=O)CCCCCCCCCCCCCCCCCCC(=O)O)C(=O)O)NC(=O)[C@@H](NC(=O)[C@H](Cc1ccccc1)NC(=O)[C@H](CC(=O)O)NC(=O)[C@H](CCC(N)=O)NC(=O)[C@H](C)NC(=O)[C@H](C)NC(=O)[C@H](CCCNC(=N)N)NC(=O)[C@H](CO)NC(=O)[C@H](CC(=O)O)NC(=O)[C@H](CC(C)C)NC(=O)[C@](C)(Cc1ccccc1)NC(=O)[C@H](CCCCN)NC(=O)[C@H](CO)NC(=O)[C@@H](NC(=O)[C@H](CC(=O)O)NC(=O)[C@H](CO)NC(=O)[C@@H](NC(=O)[C@](C)(Cc1ccccc1)NC(=O)[C@H](CO)NC(=O)CNC(=O)[C@H](Cc1c[nH]cn1)NC(=O)C(C)(C)NC(=O)[C@@H](N)Cc1c[nH]cn1)[C@@H](C)O)C(C)C)C(C)C)C(=O)N[C@@H](C)C(=O)N[C@@H](CC(N)=O)C(=O)N[C@H](C(N)=O)[C@@H](C)O [Peptide 369] (H-H[Aib]HGS[αMeF]TSDVSK[αMeF]LDSRAAQDFVK([AEEA-AEEA-γGlu-C20 diacid])[Aib]IANT-NH2)
Table 8
  % Relative Potency Ratio: 3.8

## CC[C@H](C)[C@H](NC(=O)[C@H](Cc1c[nH]c2ccccc12)NC(=O)[C@H](CCCCNC(=O)COCCOCCNC(=O)COCCOCCNC(=O)CC[C@H](NC(=O)CC[C@H](NC(=O)CCCCCCCCCCCCCCCCCCC(=O)O)C(=O)O)C(=O)O)NC(=O)[C@@H](NC(=O)[C@](C)(Cc1ccccc1)NC(=O)[C@H](CC(=O)O)NC(=O)[C@H](CCC(N)=O)NC(=O)[C@H](C)NC(=O)[C@H](C)NC(=O)[C@H](CCCNC(=N)N)NC(=O)[C@H](CO)NC(=O)[C@H](CC(=O)O)NC(=O)[C@H](CC(C)C)NC(=O)[C@](C)(Cc1ccccc1)NC(=O)[C@H](CCCCN)NC(=O)[C@H](CO)NC(=O)[C@@H](NC(=O)[C@H](CC(=O)O)NC(=O)[C@H](CO)NC(=O)[C@@H](NC(=O)[C@](C)(Cc1ccccc1)NC(=O)[C@H](CO)NC(=O)CNC(=O)[C@H](Cc1c[nH]cn1)NC(=O)C(C)(C)NC(=O)[C@@H](N)Cc1c[nH]cn1)[C@@H](C)O)C(C)C)C(C)C)C(=O)N[C@@H](C)C(=O)N[C@@H](CC(N)=O)C(=O)N[C@H](C(N)=O)[C@@H](C)O [Peptide 374] (H-H[Aib]HGS[αMeF]TSDVSK[αMeF]LDSRAAQD[αMeF]VK([AEEA-AEEA-γGlu-γGlu-C20 diacid])WIANT-NH2; N-terminus assumed)
Table 8
  % Relative Potency Ratio: 1.2

## CC[C@H](C)[C@H](NC(=O)[C@H](Cc1c[nH]c2ccccc12)NC(=O)[C@H](CCCCNC(=O)COCCOCCNC(=O)COCCOCCNC(=O)CC[C@H](NC(=O)CCCCCCCCCCCCCCCCC(=O)O)C(=O)O)NC(=O)[C@@H](NC(=O)[C@](C)(Cc1ccccc1)NC(=O)[C@H](CC(=O)O)NC(=O)[C@H](CCC(N)=O)NC(=O)[C@H](C)NC(=O)[C@H](C)NC(=O)[C@H](CCC(N)=O)NC(=O)[C@H](CO)NC(=O)[C@H](CC(=O)O)NC(=O)[C@H](CC(C)C)NC(=O)[C@](C)(Cc1ccccc1)NC(=O)[C@H](CCCCN)NC(=O)[C@H](CO)NC(=O)[C@@H](NC(=O)[C@H](CC(=O)O)NC(=O)[C@H](CO)NC(=O)[C@@H](NC(=O)[C@](C)(Cc1ccccc1)NC(=O)[C@H](CO)NC(=O)CNC(=O)[C@H](Cc1c[nH]cn1)NC(=O)C(C)(C)NC(=O)[C@@H](N)Cc1c[nH]cn1)[C@@H](C)O)C(C)C)C(C)C)C(=O)N[C@@H](C)C(=O)N[C@@H](CC(N)=O)C(=O)N[C@H](C(N)=O)[C@@H](C)O [Peptide 370] (H-H[Aib]HGS[αMeF]TSDVSK[αMeF]LDSQAAQD[αMeF]VK([AEEA-AEEA-γGlu-C18 diacid])WIANT-NH2; N-terminus assumed)
Table 8
  % Relative Potency Ratio: 1.1
